One data set relates to A-431. Nature of the data set: Cytotoxicity against human A431 cells at 100 uM by SRB method. The conditions noted are these: a-431, 100 µM. Type of data set: cell-based.
The target of data set [1] is T1, Tyrosine-protein phosphatase non-receptor type 1 (Homo sapiens, UniProt P18031).
T1 sequence (P18031 whole entry): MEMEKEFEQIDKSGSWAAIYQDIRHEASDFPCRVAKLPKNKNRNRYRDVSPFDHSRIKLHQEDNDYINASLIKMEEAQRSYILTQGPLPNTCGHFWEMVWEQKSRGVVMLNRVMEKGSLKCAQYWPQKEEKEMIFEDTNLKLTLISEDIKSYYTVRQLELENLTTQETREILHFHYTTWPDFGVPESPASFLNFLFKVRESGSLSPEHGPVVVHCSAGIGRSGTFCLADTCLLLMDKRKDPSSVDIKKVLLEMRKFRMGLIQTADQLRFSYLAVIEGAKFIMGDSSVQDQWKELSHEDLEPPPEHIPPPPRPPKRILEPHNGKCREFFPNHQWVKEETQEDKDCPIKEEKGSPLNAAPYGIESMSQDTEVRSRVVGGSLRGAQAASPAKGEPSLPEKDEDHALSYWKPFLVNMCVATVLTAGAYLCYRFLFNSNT
Kind of data set: Inhibition of PTP1B (unknown origin) using nitrophenyl phosphate as substrate after 30 mins by spectrophotometry.

For 3 compounds, Activity and IC50 results are on record in ChEMBL document CHEMBL3232899, “Highly conjugated norditerpenoid and pyrroloquinoline alkaloids with potent PTP1B inhibitory activity from Nigella glandulifera” (J Nat Prod, 2014).

For `CC1=CC(C)(C)N=C2C[C@]3(C)C(=O)C(C)(C)N=C3C(C)=C12`, in the data set with A-431, the Activity entry is given as “Non-toxic”. This compound displayed a half-maximal inhibitory concentration (IC50) in data set [1] of 6.44 µM.
`CC1=CC(C)(C)N=C2C[C@@]3(C)CC(=O)C(C(C)C)=C3C=C12`: the Activity result in the data set on A-431 is on record as “Non-toxic”. In data set [1], this compound displayed a half-maximal inhibitory concentration (IC50) of 9.71 µM.
For the compound `CC1=CC(C)(C)N=C2C[C@@]3(C)CC(=O)C(C(C)C)=CC3=C12`, the Activity entry with A-431 is on record as “Non-toxic”. In data set [1], the IC50 stood at 9.97 µM.
